Read-outs that look alike come from different tables or passages of the source.
Columns and labels:
[1] = system: TNF-α secreted by synoviocyte; assay: Content of TNF-α in culture supernatant of synoviocyte of RA model rats given test compound; type: in vivo; conditions: rat RA model, dose 30 mg/kg.2d; normal control 0.38 ± 0.027, NaCl 0.74 ± 0.098
Summary of the method: (§1)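 Test article is given to RA rats at 30 mg/kg.2d, and synoviocytes are isolated and cultured. Secreted TNF-α and PGE2 in the culture medium are measured by a shared protocol, while IL-1β release is measured by a different protocol. Comparison groups are saline (NaCl) and normal control rats.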

[2] = system: IL-1β secreted by synoviocyte; assay: Content of IL-1β in culture supernatant of synoviocyte of RA model rats given test compound; type: in vivo; conditions: rat RA model, dose 30 mg/kg.2d; normal control 0.16 ± 0.034, NaCl 0.49 ± 0.136
Summary of the method: as §1

[3] = system: PGE2 secreted by synoviocyte; assay: Content of PGE2 in culture supernatant of synoviocyte of RA model rats given test compound; type: in vivo; conditions: rat RA model, dose 30 mg/kg.2d; normal control 8.34 ± 1.29, NaCl 32.44 ± 10.32
Summary of the method: as §1

cancer stem cells = assay: Survival rate of cancer stem cells after test compound is added (flow cytometry, Annexin V-FITC/PI, clinical specimen); type: cell-based, patient; conditions: Homo sapiens, 18 h
Summary of the method: (§2)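 Steps: density-gradient isolation of mononuclear cells from fresh or cryopreserved clinical samples; 18-hour compound exposure at 1×10^6 cells/mL; staining for stem-cell surface markers, then Annexin V-FITC and PI; flow cytometric apoptosis analysis.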

cancer cells = assay: Survival rate of cancer cells after test compound is added (flow cytometry, Annexin V-FITC/PI, clinical specimen); type: cell-based, patient; conditions: Homo sapiens, 18 h, read-out: Survival rate (%) All cells (Stem cells and ordinary cells)
Summary of the method: as §2

[4] = Head and neck squamous cell carcinomas

C=C1C(=O)O[C@@H]2[C@@H]3[C@@H](CCC34CC4)C3(CC[C@@H]12)CC3 [Compound 26]
86%: viability at 10 µM (cancer stem cells; AML) | viability at 10 µM (cancer stem cells; Colon adenocarcinoma) | viability at 10 µM (cancer stem cells; Ovarian cancer) | viability at 10 µM (cancer stem cells; Pancreatic cancer) | viability at 10 µM (cancer stem cells; Prostate cancer) | viability at 10 µM (cancer stem cells; Skin cancer) | viability at 20 µM (cancer cells; Breast cancer) | viability at 20 µM (cancer cells; Children hepatoblastoma) | viability at 20 µM (cancer cells; Malignant melanoma) | viability at 20 µM (cancer cells; Pancreatic cancer)
25.61 ± 5.41 ng/mL: Content of PGE2 in culture supernatant of synoviocyte (x ± s) [3]
84%: viability at 10 µM (cancer stem cells; Brain glioma) | viability at 10 µM (cancer stem cells; Brain tumor) | viability at 10 µM (cancer stem cells; CLL) | viability at 10 µM (cancer stem cells; [4]) | viability at 20 µM (cancer cells; Gastric cancer) | viability at 20 µM (cancer cells; Lung cancer) | viability at 20 µM (cancer cells; Ovarian cancer)
83%: viability at 10 µM (cancer stem cells; Gastric cancer)
85%: viability at 10 µM (cancer stem cells; Breast cancer) | viability at 10 µM (cancer stem cells; Children hepatoblastoma) | viability at 10 µM (cancer stem cells; Lung adenocarcinoma) | viability at 10 µM (cancer stem cells; Nasopharynx cancer) | viability at 20 µM (cancer cells; AML) | viability at 20 µM (cancer cells; Brain glioma) | viability at 20 µM (cancer cells; Brain tumor) | viability at 20 µM (cancer cells; CLL) | viability at 20 µM (cancer cells; Retinoblastoma)
79%: viability at 20 µM (cancer stem cells; Children hepatoblastoma) | viability at 10 µM (cancer stem cells; Colorectal cancer) | viability at 20 µM (cancer stem cells; Liver cancer) | viability at 20 µM (cancer cells; CML)
89%: viability at 10 µM (cancer cells; Brain tumor) | viability at 10 µM (cancer cells; Breast cancer) | viability at 20 µM (cancer cells; Colon adenocarcinoma) | viability at 10 µM (cancer cells; Liver cancer) | viability at 20 µM (cancer cells; Prostate cancer)
82%: viability at 20 µM (cancer stem cells; Gastrointestinal tumor) | viability at 10 µM (cancer stem cells; Liver cancer) | viability at 20 µM (cancer stem cells; Lung adenocarcinoma) | viability at 10 µM (cancer stem cells; Lung cancer) | viability at 10 µM (cancer stem cells; Malignant melanoma) | viability at 10 µM (cancer stem cells; Retinoblastoma) | viability at 20 µM (cancer cells; Laryngeal cancer)
94%: viability at 10 µM (cancer cells; Glioma) | viability at 10 µM (cancer cells; Nasopharynx cancer) | viability at 10 µM (cancer cells; Skin cancer)
81%: viability at 20 µM (cancer stem cells; Colon adenocarcinoma) | viability at 20 µM (cancer cells; Colorectal cancer) | viability at 20 µM (cancer cells; Nasopharynx cancer)
78%: viability at 20 µM (cancer stem cells; [4]) | viability at 20 µM (cancer stem cells; Lung cancer)
88%: viability at 10 µM (cancer stem cells; CML) | viability at 10 µM (cancer cells; Brain glioma) | viability at 10 µM (cancer cells; Gastric cancer) | viability at 20 µM (cancer cells; Gastrointestinal tumor) | viability at 20 µM (cancer cells; [4]) | viability at 10 µM (cancer cells; Laryngeal cancer) | viability at 10 µM (cancer cells; Lung cancer) | viability at 10 µM (cancer cells; Malignant melanoma)
90%: viability at 10 µM (cancer cells; Pancreatic cancer)
72%: viability at 20 µM (cancer stem cells; Colorectal cancer)
0.59 ± 0.051 ng/mL: Content of TNF-α in culture supernatant of synoviocyte (x ± s) [1]
77%: viability at 20 µM (cancer stem cells; Gastric cancer) | viability at 20 µM (cancer stem cells; Pancreatic cancer) | viability at 20 µM (cancer stem cells; Prostate cancer)
91%: viability at 10 µM (cancer cells; Colon adenocarcinoma) | viability at 10 µM (cancer cells; [4]) | viability at 10 µM (cancer cells; Lung adenocarcinoma) | viability at 10 µM (cancer cells; Ovarian cancer) | viability at 10 µM (cancer cells; Retinoblastoma)
74%: viability at 20 µM (cancer stem cells; Breast cancer) | viability at 20 µM (cancer stem cells; CLL) | viability at 20 µM (cancer stem cells; Nasopharynx cancer) | viability at 20 µM (cancer stem cells; Retinoblastoma)
87%: viability at 10 µM (cancer stem cells; Gastrointestinal tumor) | viability at 10 µM (cancer stem cells; Glioma) | viability at 10 µM (cancer cells; Colorectal cancer) | viability at 20 µM (cancer cells; Glioma) | viability at 20 µM (cancer cells; Liver cancer) | viability at 20 µM (cancer cells; Lung adenocarcinoma) | viability at 20 µM (cancer cells; Skin cancer)
0.42 ± 0.052 ng/mL: Content of IL-1β in culture supernatant of synoviocyte (x ± s) [2]
80%: viability at 10 µM (cancer stem cells; Laryngeal cancer)
75%: viability at 20 µM (cancer stem cells; Laryngeal cancer) | viability at 20 µM (cancer stem cells; Ovarian cancer) | viability at 20 µM (cancer stem cells; Skin cancer)
92%: viability at 10 µM (cancer cells; CML) | viability at 10 µM (cancer cells; Prostate cancer)
93%: viability at 10 µM (cancer cells; AML) | viability at 10 µM (cancer cells; CLL) | viability at 10 µM (cancer cells; Children hepatoblastoma) | viability at 10 µM (cancer cells; Gastrointestinal tumor)
73%: viability at 20 µM (cancer stem cells; AML) | viability at 20 µM (cancer stem cells; Brain tumor)
76%: viability at 20 µM (cancer stem cells; Brain glioma) | viability at 20 µM (cancer stem cells; CML) | viability at 20 µM (cancer stem cells; Glioma) | viability at 20 µM (cancer stem cells; Malignant melanoma)
